This is an account of results in ChEMBL document CHEMBL1139660, “Imidazo[1,2-b][1,2,4]triazines as alpha2/alpha3 subtype selective GABA A agonists for the treatment of anxiety” (Bioorg Med Chem Lett, 2006).

SMILES strings stand for the structures. pKi: −log10 of the molar value.

For data set [1], the target named is T1, GABA-A receptor; alpha-1/beta-3/gamma-2 (Homo sapiens, UniProt P14867+P18507+P28472).
T1 sequence (P14867 whole entry): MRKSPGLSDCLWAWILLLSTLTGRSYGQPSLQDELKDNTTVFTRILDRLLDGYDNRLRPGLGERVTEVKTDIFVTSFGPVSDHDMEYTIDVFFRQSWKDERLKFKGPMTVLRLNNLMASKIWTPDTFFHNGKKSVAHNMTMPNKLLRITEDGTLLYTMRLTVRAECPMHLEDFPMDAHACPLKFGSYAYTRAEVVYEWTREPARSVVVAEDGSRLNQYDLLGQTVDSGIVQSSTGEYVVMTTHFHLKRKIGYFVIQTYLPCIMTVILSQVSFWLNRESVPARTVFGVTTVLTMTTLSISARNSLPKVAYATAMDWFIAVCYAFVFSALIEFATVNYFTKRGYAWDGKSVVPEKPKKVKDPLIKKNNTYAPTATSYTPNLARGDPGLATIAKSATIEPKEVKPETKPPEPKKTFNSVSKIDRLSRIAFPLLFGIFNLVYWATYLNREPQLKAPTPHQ
T1 sequence (P18507 whole entry): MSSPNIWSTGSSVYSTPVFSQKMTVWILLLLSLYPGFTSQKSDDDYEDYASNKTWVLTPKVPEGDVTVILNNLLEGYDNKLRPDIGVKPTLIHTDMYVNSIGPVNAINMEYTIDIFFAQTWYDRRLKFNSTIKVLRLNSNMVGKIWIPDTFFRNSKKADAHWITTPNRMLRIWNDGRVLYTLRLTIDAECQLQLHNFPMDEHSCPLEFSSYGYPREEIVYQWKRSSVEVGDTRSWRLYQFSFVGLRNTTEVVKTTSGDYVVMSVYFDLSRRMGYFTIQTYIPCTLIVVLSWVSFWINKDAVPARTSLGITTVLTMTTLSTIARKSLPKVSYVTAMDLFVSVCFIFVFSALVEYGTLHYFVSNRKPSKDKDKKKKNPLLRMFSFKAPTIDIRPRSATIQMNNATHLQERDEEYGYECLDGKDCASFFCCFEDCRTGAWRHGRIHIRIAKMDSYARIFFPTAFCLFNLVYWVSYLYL
T1 sequence (P28472 whole entry): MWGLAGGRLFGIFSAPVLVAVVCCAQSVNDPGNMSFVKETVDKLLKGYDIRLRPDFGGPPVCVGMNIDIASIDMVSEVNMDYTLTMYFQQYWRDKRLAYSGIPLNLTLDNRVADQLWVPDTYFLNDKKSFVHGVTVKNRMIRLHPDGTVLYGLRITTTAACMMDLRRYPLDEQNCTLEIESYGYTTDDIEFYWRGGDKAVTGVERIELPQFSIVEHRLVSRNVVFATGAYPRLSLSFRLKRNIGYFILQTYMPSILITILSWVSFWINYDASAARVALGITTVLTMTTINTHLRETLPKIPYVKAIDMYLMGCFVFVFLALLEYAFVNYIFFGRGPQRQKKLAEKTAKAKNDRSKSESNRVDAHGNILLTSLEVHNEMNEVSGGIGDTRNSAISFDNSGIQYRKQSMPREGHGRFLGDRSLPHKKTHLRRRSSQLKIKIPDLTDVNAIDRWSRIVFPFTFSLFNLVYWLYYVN
The data set is described as follows: Displacement of [3H]Ro 15-1788 from recombinant human GABA-Aalpha1 receptor plus beta3gamma2 expressed in mouse L(tk-) cells. The format is cell-based. Background: Displacement assays read how much labelled ligand stays bound in the presence of the test substance.

The subject of a further data set is Rattus norvegicus. The data set can be described thus: Plasma clearance in Sprague-Dawley rat at 1 mg/kg, iv or 1 mg/kg, po. It counts as organism-based.
Data set [2] is described as follows: Half life in Sprague-Dawley rat at 1 mg/kg, iv or 1 mg/kg, po. The format is ADME, organism-based. As to conditions: in vivo.
Data set [3] in a line: Volume of distribution in Sprague-Dawley rat at 1 mg/kg, iv or 1 mg/kg, po. The format is ADME, organism-based. To be noted: in vivo, read-out: Vdss.
Data set [4] is described as follows: Oral bioavailability in Beagle dog at 1 mg/kg, iv or 1 mg/kg, po. The format is ADME, organism-based, Canis lupus familiaris. To be noted: in vivo.
Data set [5] can be described thus: Half life in Beagle dog at 1 mg/kg, iv or 1 mg/kg, po. It counts as ADME, organism-based, Canis lupus familiaris. As to conditions: in vivo.
Data set [6] is described as follows: Volume of distribution in Beagle dog at 1 mg/kg, iv or 1 mg/kg, po. It counts as ADME, organism-based, Canis lupus familiaris. As to conditions: in vivo, read-out: Vdss.
In data set [7] the target is GABA-A receptor; alpha-5/beta-3/gamma-2 (Homo sapiens) (UniProt P18507+P28472+P31644). The data set can be described thus: Efficacy against recombinant human GABA-Aalpha5 receptor plus beta3gamma2 expressed in L(tk-) cells by whole cell patch clamp method relative to chlordiazepoxide. It counts as functional, cell-based. (In general: In patch-clamp work, channel activity is measured electrically.)

As a reminder, the pKi is the negative decadic logarithm of the Ki, by convention in mol/L. By half-life is commonly meant how long it takes for the measured level to halve. Read a high half-life as slow loss. In general, bioavailability refers to dose-corrected exposure relative to a reference, in per cent. A higher bioavailability goes with good availability. Turning to `CC(C)(O)c1cnn2c(-c3ccc(F)c(-c4ncccc4C#N)c3)cnc2n1`, in data set [1], the negative-log Ki (pKi) is 8.89. Moreover, the CL (mL.min-1.kg-1) in the data set on Rattus norvegicus was 2.4. Moreover, the half-life in data set [2] is 7.9 h; in data set [5] it was 9.7 h. For the same molecule, the Vd in data set [3] was found to be 1.7 L/kg; in data set [6], 1.5 L/kg. The molecule further yielded a bioavailability in data set [4] of 99%. Besides, the Efficacy in data set [7] was 0.2.

For `CC(C)(O)c1cnn2c(-c3ccc(F)c(-c4ncc(F)cc4F)c3)cnc2n1`, in data set [1], the negative logarithm of the Ki (pKi) was 9.17. Moreover, the CL (mL.min-1.kg-1) in the data set with Rattus norvegicus was found to be 1.2. Also, the half-life in data set [2] was 22 h. Also, the values for the Vd in data set [3] and in data set [6] were 2.2 L/kg and 2.3 L/kg, respectively. The molecule also yielded a bioavailability in data set [4] of 64%. Moreover, the Efficacy in data set [7] came to 0.09.
